Source: US5614192A, “T cell receptor peptides as therapeutics for immune-related disease” (Connective Therapeutics, Inc., priority 1993, dated 1997)
Ends that are not written are not given here.

Test system: popliteal LN cells
Assay: Proliferation of LN cells after EAE induction and TCR peptide treatment (Table 23)
Type: cell-based, Lewis rats
Method: The proliferative responses and specificity of T cells in the draining LN (popliteal) of rats treated with TCR Vβ8(39-59) peptide for EAE on day 13 after disease induction were examined (Table 23). On day 0, Lewis rats received an EAE-inducing regimen of GP-BP+CFA SC into their hind footpads. […] On day 20, about 7 days after onset of EAE, popliteal LNs were removed and T cell proliferative activity in response to the indicated antigens or mitogens were tested directly.
Results are shown as net ^3 Hthymidine incorporation of 5 ×

In the case of “DMGHGLRLIHYSYDVNSTEKG [TCR Vβ8(39-59), 21-amino acid CDR2 peptide of rat TCR Vβ8]”, the “T Cell Proliferation” value (LN cells day 20 of Control rats (saline day 13)) is reported as 31 cpm × 10^-3, the “T Cell Proliferation” value (LN cells of rats given TCR Vβ 8(39-59) 50 μg ID day 13) is reported as 30 cpm × 10^-3 and the “T Cell Proliferation” value (LN cells of rats given TCR Vβ 8(39-59) 100 μg SC (in CFA) day 13) is reported as 39 cpm × 10^-3.
